Values of other authors as cited in publication PMC8287861 (Frontiers in Microbiology, 2021).
In brackets after ≈: the same amount, converted by molar mass.

Tests used:
Parameters in all cases: method as in Lomovskaya et al. (2020b)
PAM4790 OXA-10 = settings: PAM4790, OXA-10, class D; ref Lomovskaya et al. (2020b)
PAM4798 VIM-2 = settings: PAM4798, VIM-2, class B1; ref Lomovskaya et al. (2020b)
PAM4889 IMP-26 = settings: PAM4889, IMP-26, class B1; ref Lomovskaya et al. (2020b)
PAM4890 IMP-19 = settings: PAM4890, IMP-19, class B1; ref Lomovskaya et al. (2020b)
PAM4745 P99 = settings: PAM4745, P99, class C; ref Lomovskaya et al. (2020b)
PAM4888 IMP-4 = settings: PAM4888, IMP-4, class B1; ref Lomovskaya et al. (2020b)
PAM4908 VEB-1 = settings: PAM4908, VEB-1, class A; ref Lomovskaya et al. (2020b)
PAM4885 SPM-1 = settings: PAM4885, SPM-1, class B1; ref Lomovskaya et al. (2020b)
PAM4196 IMP-13 = settings: PAM4196, IMP-13, class B1; ref Lomovskaya et al. (2020b)
PAM4217 OXA-48 = settings: PAM4217, OXA-48, class D-CARB; ref Lomovskaya et al. (2020b)
PAM4883 GIM-1 = settings: PAM4883, GIM-1, class B1; ref Lomovskaya et al. (2020b)
PAM4842 PER-2 = settings: PAM4842, PER-2, class A; ref Lomovskaya et al. (2020b)
PAM4907 PER-4 = settings: PAM4907, PER-4, class A; ref Lomovskaya et al. (2020b)
PAM4875 OXA-23 = settings: PAM4875, OXA-23, class D-CARB; ref Lomovskaya et al. (2020b)
PAM4820 CTX-M-25 = settings: PAM4820, CTX-M-25, class A; ref Lomovskaya et al. (2020b)
PAM4881 VIM-7 = settings: PAM4881, VIM-7, class B1; ref Lomovskaya et al. (2020b)
PAM4869 PDC-1 = settings: PAM4869, PDC-1, class C; ref Lomovskaya et al. (2020b)
PAM4175 pUCP24 vector = settings: ref Lomovskaya et al. (2020b)
PAM4179 NDM-1 = settings: PAM4179, NDM-1, class B1; ref Lomovskaya et al. (2020b)
PAM4938 VEB-9 = settings: PAM4938, VEB-9, class A; ref Lomovskaya et al. (2020b)
PAM4792 OXA-2 = settings: PAM4792, OXA-2, class D; ref Lomovskaya et al. (2020b)
PAM4846 OXA-9 = settings: PAM4846, OXA-9, class D; ref Lomovskaya et al. (2020b)
PAM4886 GES-1 = settings: PAM4886, GES-1, class A; ref Lomovskaya et al. (2020b)
PAM4874 SHV-12 = settings: PAM4874, SHV-12, class A; ref Lomovskaya et al. (2020b)
PAM4186 CMY-2 = settings: PAM4186, CMY-2, class C; ref Lomovskaya et al. (2020b)
PAM4825 MIR-1 = settings: PAM4825, MIR-1, class C; ref Lomovskaya et al. (2020b)

SMILES | MIC (PAM4790 OXA-10) [µg/mL] | MIC (PAM4798 VIM-2) [µg/mL] | MIC (PAM4889 IMP-26) [µg/mL] | MIC (PAM4890 IMP-19) [µg/mL] | MIC (PAM4745 P99) [µg/mL] | MIC (PAM4888 IMP-4) [µg/mL] | MIC (PAM4908 VEB-1) [µg/mL] | MIC (PAM4885 SPM-1) [µg/mL] | MIC (PAM4196 IMP-13) [µg/mL] | MIC (PAM4217 OXA-48) [µg/mL] | MIC (PAM4883 GIM-1) [µg/mL] | MIC (PAM4842 PER-2) [µg/mL] | MIC (PAM4907 PER-4) [µg/mL] | MIC (PAM4875 OXA-23) [µg/mL] | MIC (PAM4820 CTX-M-25) [µg/mL] | MIC (PAM4881 VIM-7) [µg/mL] | MIC (PAM4869 PDC-1) [µg/mL] | MIC (PAM4175 pUCP24 vector) [µg/mL] | MIC (PAM4179 NDM-1) [µg/mL] | MIC (PAM4938 VEB-9) [µg/mL] | other results
CC(C)(O/N=C(\C(=O)N[C@@H]1C(=O)N2C(C(=O)[O-])=C(C[n+]3ccccc3)CS[C@H]12)c1csc(N)n1)C(=O)O [Ceftazidime, ceftazidime] | 0.25 (≈ 0.457 µM) | 16 (≈ 29.3 µM) | >64 | >64 | 64 (≈ 117 µM) | >64 | >64 | >64 | 64 (≈ 117 µM) | 0.25 (≈ 0.457 µM) | >64 | >64 | >64 | 0.25 (≈ 0.457 µM) | 8 (≈ 14.6 µM) | 0.5 (≈ 0.915 µM) | 16 (≈ 29.3 µM) | 0.25 (≈ 0.457 µM) | >64 | 256 (≈ 468 µM) | MIC (PAM4792 OXA-2): 8 µg/mL (≈ 14.6 µM); MIC (PAM4846 OXA-9): 0.25 µg/mL (≈ 0.457 µM); MIC (PAM4886 GES-1): 64 µg/mL (≈ 117 µM); MIC (PAM4874 SHV-12): >64 µg/mL; MIC (PAM4186 CMY-2): 16 µg/mL (≈ 29.3 µM); MIC (PAM4825 MIR-1): 16 µg/mL (≈ 29.3 µM)
CCN1CCN(C(=O)N[C@@H](C(=O)N[C@@H]2C(=O)N3[C@@H]2SC(C)(C)[C@@H]3C(=O)O)c2ccccc2)C(=O)C1=O [Piperacillin, piperacillin] | 0.125 (≈ 0.242 µM) | 16 (≈ 30.9 µM) | 0.125 (≈ 0.242 µM) | 0.25 (≈ 0.483 µM) | 64 (≈ 124 µM) | 0.5 (≈ 0.966 µM) | 8 (≈ 15.5 µM) | 32 (≈ 61.8 µM) | 0.5 (≈ 0.966 µM) | 16 (≈ 30.9 µM) | >64 | 1 (≈ 1.93 µM) | 0.5 (≈ 0.966 µM) | 16 (≈ 30.9 µM) | >64 | 2 (≈ 3.86 µM) | >64 | 0.125 (≈ 0.242 µM) | 64 (≈ 124 µM) | 16 (≈ 30.9 µM) | MIC (PAM4792 OXA-2): 64 µg/mL (≈ 124 µM); MIC (PAM4846 OXA-9): 8 µg/mL (≈ 15.5 µM); MIC (PAM4886 GES-1): 4 µg/mL (≈ 7.73 µM); MIC (PAM4874 SHV-12): >64 µg/mL; MIC (PAM4186 CMY-2): 8 µg/mL (≈ 15.5 µM); MIC (PAM4825 MIR-1): 8 µg/mL (≈ 15.5 µM)
